melting point [°C] | SMILES
135 to 139 | CCOC(=O)[C@H](CCC1CCCCC1)N[C@H]1COc2ccccc2N(CC(=O)O)C1=O
144 to 146 | CC(c1cccc(C#N)n1)C(O)(Cn1cncn1)c1ccc(F)cc1F (stereo not given)
84 to 87 | CCCc1c(OCCCCCc2c(Cl)c(Cl)c(Cl)c(OC)c2OC)ccc(C(=O)OC)c1O
258 to 260 | NC(=O)c1[nH]c2ccc(Cl)cc2c1S(=O)(=O)c1cc(Cl)cc(Cl)c1
178 to 180 | O=C(O)CCN1CCN(c2ccc(F)cc2)CC1
129 to 136 | CCNC(=O)c1cccc(C2(c3ccc(OC(F)(F)F)cc3)N=C(N)N3CCCN=C32)c1 (stereo not given)
138 to 142 | O=C1c2cc3c(cc2CCC1(Br)Br)OCC3
51.9 to 53.2 | C=CC1=C(C(=O)OCC)C(C(F)(F)F)Oc2ccc(Cl)cc21 (stereo not given)
177 to 178 | O=c1[nH]c2cc(F)c(NCC3CCc4ccccc4C3)cc2o1 (stereo not given)
141 to 144 | CCOC(=O)Nc1cnn(C)c1S(=O)(=O)NC(=S)NC(C)C
238 to 240 | CC(C)(C#N)CNC(=O)c1n[nH]cc1NC(=O)c1ccccn1
139 | CC(C)(C)OC(=O)N[C@@H](Cc1cc(F)cc(F)c1)C(=O)CCl
247 to 250 | Cc1cc(C#N)ccc1-c1cccc(-c2nc3cc(C#N)ccc3[nH]2)c1
> 300 | O=C1NC(=S)SC1=Cc1ccc2c(c1)N(OCc1ccccc1)C(=O)CO2
320 to 322 | COc1ccc(NC(=O)NCc2cccc3c2CN(C2CCC(=O)NC2=O)C3=O)cc1 (stereo not given)
212 to 214 | O=C1NCCc2c(-c3cccc(C(F)(F)F)c3)[nH]c3cccc1c23
199 to 201 | CCNc1nc(N)nc2c1ncn2C1CC(N=[N+]=[N-])C(CO)O1 (stereo not given)
102 | CSc1nc(Cl)cc(N(C)C)n1
148 to 150 | CON(c1ccc([N+](=O)[O-])cc1[N+](=O)[O-])S(=O)(=O)c1cccc(C)c1
161 to 162 | CC1=C(C(=O)c2ccc(Br)cc2)C(=O)C2C(O)=CC=CC2C1=O (stereo not given)
91 to 93 | Cc1ccc(S(=O)(=O)OCCC2COc3ccccc3C2)cc1 (stereo not given)

The remaining lines, values behind:

SMILES | melting point [°C]
CC(C(=O)O)c1ccc2c(c1)C(=O)Cc1ccccc1S2 (stereo not given) | 130 to 132
COc1cc(C2CCN(CC(N)=O)CC2)ccc1Nc1ncc2ccc(-c3cccc(S(=O)(=O)NC(C)(C)C)c3)n2n1 | 250 to 252
O=c1c2cc(F)c(F)cc2n(CC2CC2)c(=O)n1OCc1ccccc1 | 121 to 123
C#CC1(O)CCC2C3CCC4=CC(=O)CCC4C3CCC21CCC (stereo not given) | 149 to 150
CC(=O)C(=C1SCCCN1Br)[N+](=O)[O-] | 101 to 104
O=C(Nc1ccc(CNc2nc(Cl)nc3cc(I)ccc23)cc1)c1ccc(Cl)nc1 | 315
CC(=O)c1cn(-c2cc(C)c3[nH]c(=O)ccc3c2)c(C)n1 | 306 to 308
O=C(NCC1CCCCC1)c1c(Cl)ccc2nc(CCCCc3nnn[nH]3)ccc12 | 90 to 93
O=C(O)c1cn(C2CC2)c2c(F)c(N3CC(C(=O)O)C3)c(F)cc2c1=O | 251 to 255
CC(C)(C#N)Cc1ccc2cc(CC(C)(C)C#N)ccc2c1 | 178 to 180
Cc1nc2cc(NC(=O)c3ccc(Cl)cc3Cl)ccc2n1C | 275 to 277
COc1cc(OC)cc(-c2nn(C(C)c3oc4ccccc4c(=O)c3-c3cccc(F)c3)c3ncnc(N)c23)c1 (stereo not given) | 224 to 227
O=C1N(Cc2ncccn2)c2ccccc2C12COc1cc3c(cc12)CCO3 (stereo not given) | 203 to 205
NS(=O)(=O)c1ncccc1OCCF | 122 to 123
O=Cc1c[nH]c2c1ccc1c3ccc(Br)cc3[nH]c12 | > 250
CC(=O)N[C@H](COC(F)F)C(=O)NCc1ccc(F)cc1 | 163
O=C(O)Cc1ccc(-c2ccc(F)cc2F)cc1 | 143 to 145
CCN(CC)c1cccc(COc2ccc(N)nn2)c1 | 115 to 118
CC(=O)OC1CCC2(C)C(=CCC3C2CCC2(C)C(C(C)=O)=CCC32)C1 (stereo not given) | 169 to 172

From a melting point compilation (Tetko et al.; mined from patent text by program, amines drawn as free bases though some values may be those of a salt)
